Legend:
[1] = molecular target: C-C chemokine receptor type 2 (Homo sapiens, UniProt P41597); test: Antagonist activity at human CCR2; assay type: functional
Cytochrome P450 1A2 = molecular target: T1, Cytochrome P450 1A2 (Homo sapiens, UniProt P05177); test: Inhibition of human CYP1A2; assay type: ADME
T1 sequence (P05177 whole entry): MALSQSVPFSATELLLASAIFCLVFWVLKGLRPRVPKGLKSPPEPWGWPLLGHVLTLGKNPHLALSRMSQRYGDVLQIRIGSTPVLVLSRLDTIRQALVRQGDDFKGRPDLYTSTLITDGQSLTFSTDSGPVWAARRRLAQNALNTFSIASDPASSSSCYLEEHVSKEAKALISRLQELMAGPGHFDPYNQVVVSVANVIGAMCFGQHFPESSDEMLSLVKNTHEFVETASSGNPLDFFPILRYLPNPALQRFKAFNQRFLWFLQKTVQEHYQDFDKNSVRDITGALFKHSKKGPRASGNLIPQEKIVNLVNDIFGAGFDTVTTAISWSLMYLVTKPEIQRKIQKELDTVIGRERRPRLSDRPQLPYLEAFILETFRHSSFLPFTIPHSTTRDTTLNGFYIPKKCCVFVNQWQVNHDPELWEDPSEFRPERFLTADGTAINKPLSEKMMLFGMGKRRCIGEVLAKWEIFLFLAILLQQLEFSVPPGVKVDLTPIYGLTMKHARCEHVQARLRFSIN

Cytochrome P450 3A4 [2] = molecular target: T2, Cytochrome P450 3A4 (Homo sapiens, UniProt P08684); test: Inhibition of human CYP3A4 using 7-benzyloxyquinoline as substrate; assay type: ADME
[3] = Cmax in rat at 10 mg/kg, po; assay type: ADME, organism-based; parameters: dose 10 mg/kg, route oral; conditions: in vivo
Cytochrome P450 2C19 = Cytochrome P450 2C19 (Homo sapiens, UniProt P33261); test: Inhibition of human CYP2C19; assay type: ADME
[4] = Half life in rat at 10 mg/kg, po; assay type: ADME, organism-based; parameters: dose 10 mg/kg, route oral; conditions: in vivo
Cytochrome P450 2D6 = Cytochrome P450 2D6 (Homo sapiens, UniProt P10635); test: Inhibition of human CYP2D6; assay type: ADME
[5] = Oral bioavailability in rat at 10 mg/kg; assay type: ADME, organism-based; conditions: in vivo
Cytochrome P450 3A4 [6] = molecular target: T2, Cytochrome P450 3A4; test: Inhibition of human CYP3A4 using dibenzylfluorescein as substrate; assay type: ADME
Cytochrome P450 3A4 [7] = molecular target: T2, Cytochrome P450 3A4; test: Inhibition of human CYP3A4 using 7-benzyloxy-4-trifluoromethylcoumarin as substrate; assay type: ADME

Sequence of C-C chemokine receptor type 2 (P41597 whole entry): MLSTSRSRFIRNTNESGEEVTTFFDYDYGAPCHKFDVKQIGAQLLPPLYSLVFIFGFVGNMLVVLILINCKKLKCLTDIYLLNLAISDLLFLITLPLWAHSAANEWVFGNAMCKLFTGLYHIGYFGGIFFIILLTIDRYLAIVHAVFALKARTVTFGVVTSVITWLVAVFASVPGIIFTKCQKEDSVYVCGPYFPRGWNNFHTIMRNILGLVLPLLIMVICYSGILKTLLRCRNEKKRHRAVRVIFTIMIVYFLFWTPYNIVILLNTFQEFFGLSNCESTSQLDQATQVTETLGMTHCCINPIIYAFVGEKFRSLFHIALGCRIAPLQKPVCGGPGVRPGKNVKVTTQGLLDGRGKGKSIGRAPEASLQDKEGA
T2 sequence (P08684 whole entry): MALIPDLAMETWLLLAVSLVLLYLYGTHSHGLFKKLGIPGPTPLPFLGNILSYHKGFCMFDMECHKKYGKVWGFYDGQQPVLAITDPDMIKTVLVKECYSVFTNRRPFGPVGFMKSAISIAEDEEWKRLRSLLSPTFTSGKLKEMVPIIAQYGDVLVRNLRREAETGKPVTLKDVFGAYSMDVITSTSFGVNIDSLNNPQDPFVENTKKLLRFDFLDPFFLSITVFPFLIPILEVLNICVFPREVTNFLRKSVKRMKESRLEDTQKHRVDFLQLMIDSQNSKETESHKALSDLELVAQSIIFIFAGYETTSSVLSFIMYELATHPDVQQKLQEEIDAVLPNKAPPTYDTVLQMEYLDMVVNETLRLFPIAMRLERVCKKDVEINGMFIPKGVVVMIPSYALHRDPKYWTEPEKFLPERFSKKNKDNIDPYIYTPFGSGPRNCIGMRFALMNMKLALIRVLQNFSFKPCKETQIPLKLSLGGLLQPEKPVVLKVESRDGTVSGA
Sequence of Cytochrome P450 2C19 (P33261 whole entry): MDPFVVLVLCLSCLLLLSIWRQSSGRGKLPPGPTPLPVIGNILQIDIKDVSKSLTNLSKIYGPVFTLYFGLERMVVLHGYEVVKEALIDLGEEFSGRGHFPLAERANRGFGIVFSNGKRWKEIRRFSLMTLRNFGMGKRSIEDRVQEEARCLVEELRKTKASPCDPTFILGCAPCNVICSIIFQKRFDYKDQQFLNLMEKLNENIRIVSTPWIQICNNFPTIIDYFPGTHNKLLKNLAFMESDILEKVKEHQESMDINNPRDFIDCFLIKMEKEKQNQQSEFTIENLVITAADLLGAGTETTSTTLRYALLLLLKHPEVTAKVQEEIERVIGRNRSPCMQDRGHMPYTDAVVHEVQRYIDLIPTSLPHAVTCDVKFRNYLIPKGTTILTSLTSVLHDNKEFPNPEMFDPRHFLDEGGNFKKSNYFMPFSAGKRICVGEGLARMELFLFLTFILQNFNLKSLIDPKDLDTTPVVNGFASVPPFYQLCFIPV
Sequence of Cytochrome P450 2D6 (P10635 whole entry): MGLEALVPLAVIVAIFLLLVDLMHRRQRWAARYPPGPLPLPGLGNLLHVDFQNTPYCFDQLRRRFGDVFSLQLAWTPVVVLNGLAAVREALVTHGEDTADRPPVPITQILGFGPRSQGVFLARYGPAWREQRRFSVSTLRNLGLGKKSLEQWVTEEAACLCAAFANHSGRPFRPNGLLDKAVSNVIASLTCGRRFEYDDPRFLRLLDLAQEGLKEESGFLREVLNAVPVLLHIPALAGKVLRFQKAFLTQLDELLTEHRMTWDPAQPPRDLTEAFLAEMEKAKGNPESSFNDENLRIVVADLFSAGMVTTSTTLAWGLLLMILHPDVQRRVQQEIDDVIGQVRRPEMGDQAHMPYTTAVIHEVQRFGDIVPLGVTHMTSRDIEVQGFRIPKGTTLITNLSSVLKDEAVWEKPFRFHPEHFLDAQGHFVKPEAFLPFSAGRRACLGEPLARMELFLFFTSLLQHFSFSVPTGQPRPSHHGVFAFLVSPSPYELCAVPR

Question: With `O=C(/C=C/c1ccc(Cl)c(Cl)c1)N1CCC(C(CO)N2CCC(c3c[nH]c4ncccc34)CC2)CC1` (racemic) as the compound, how does the IC50 [1] read?
Answer: 6 nM

Question: With `O=C(O)C(C1CCN(C(=O)/C=C/c2cc(F)c(F)c(F)c2)CC1)N1CCC(c2c[nH]c3ncccc23)CC1` (stereo unspecified) as the compound, how does the IC50 [1] read?
Answer: 17 nM

Question: With `O=C(/C=C/c1cc(F)c(F)c(F)c1)N1CCC(CN2CCC(c3c[nH]c4ncccc34)CC2)CC1` as the compound, how does the IC50 [1] read?
Answer: 1300 nM

Question: For `O=C(Nc1ccc(Cl)c(Cl)c1)N1CCC(C(CO)N2CCC(c3c[nH]c4ncccc34)CC2)CC1` (racemic), which IC50 [1] is on record?
Answer: 14 nM

Question: For `O=C(/C=C/c1cc(F)c(F)c(F)c1)N1CCC(C(CO)N2CCC(c3c[nH]c4ncccc34)CC2)CC1` (racemic), which IC50 [1] is on record?
Answer: 7 nM

Question: Which IC50 [1] does the source give for `O=C(/C=C/c1cc(F)cc(F)c1)N1CCC(C(CO)N2CCC(c3c[nH]c4ncccc34)CC2)CC1` (racemic) here?
Answer: 6 nM

Question: For `O=C(/C=C/c1cc(F)cc(F)c1)N1CCC([C@@H](CO)N2CCC(c3c[nH]c4ncccc34)CC2)CC1`, which IC50 [1] is on record?
Answer: 4 nM

Question: What about the IC50 (Cytochrome P450 1A2) of the same compound?
Answer: > 40000 nM

Question: What about the IC50 (Cytochrome P450 3A4 [2]) of the same compound?
Answer: > 40000 nM

Question: And the Cmax [3]?
Answer: 341 ng/mL

Question: And the IC50 (Cytochrome P450 2C19)?
Answer: 27100 nM

Question: What about the half-life [4] of the same compound?
Answer: 5.6 h

Question: What about the IC50 (Cytochrome P450 2D6) of the same compound?
Answer: 13300 nM

Question: And the bioavailability [5]?
Answer: 36%

Question: What about the IC50 (Cytochrome P450 3A4 [6]) of the same compound?
Answer: 20600 nM

Question: What about the IC50 (Cytochrome P450 3A4 [7]) of the same compound?
Answer: 25200 nM
